Conditions: human, microsomes, 2.5 µM

| Compound | CLH |
| --- | --- |
| NS(=O)(=O)c1ccccc1-c1ccc2ncnc(NCc3ccc(Cl)nc3)c2c1 | 0.024 mL/h/kg |
| COc1ccc(OC)c(C(C)n2cnc3ccc(-c4ccccc4S(N)(=O)=O)cc3c2=O)c1 (stereo unspecified) | 2.88 mL/h/kg |
| COc1cc(CCn2cnc3ccc(-c4ccccc4S(=O)(=O)N(C)C)cc3c2=O)cc(OC)c1 | 17.6 mL/h/kg |
| CNc1ccc(-c2ccccc2S(N)(=O)=O)cc1C(=O)NCCc1cc(OC)ccc1OC | 11.5 mL/h/kg |
| COc1cc(CCn2cnc3ccc(-c4noc(C)n4)cc3c2=O)cc(OC)c1 | 1.32 mL/h/kg |
| COc1ccc(OC)c(CCN2CCc3ccc(-c4ccccc4S(N)(=O)=O)cc3C2)c1 | 1.38 mL/h/kg |
